{"source": "patent US9981959B2", "about": "“Thiazolyl and oxazolyl urea, thiourea, guanidine and cyanoguanidine compounds as TrkA kinase inhibitors” (Array BioPharma Inc., priority 2012, dated 2018)", "assay_in_all_cases": "KinaseProfiler off-target kinase profiling", "type_in_all_cases": "biochemical", "settings_in_all_cases": "10 μM, ATP near Km", "key": {"JNK2alpha2": {"target": "T1, JNK2alpha2 (Homo sapiens, UniProt P45984)", "T1 construct": "purchased Millipore, Inc. (KinaseProfiler service)", "in_short": "(§1)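 Duplicate reactions containing 10 μM test compound used an ATP level near each kinase's Km. Remaining activity is reported relative to control (POC), averaged.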"}, "PRKG1alpha": {"target": "T2, PRKG1alpha (Homo sapiens, UniProt Q13976)", "T2 construct": "purchased Millipore, Inc. (KinaseProfiler service)", "in_short": "as §1"}, "EphB1": {"target": "T3, EphB1 (Homo sapiens, UniProt P54762)", "T3 construct": "purchased Millipore, Inc. (KinaseProfiler service)", "in_short": "as §1"}, "PRKG1beta": {"target": "T4, PRKG1beta (Homo sapiens, UniProt Q13976)", "T4 construct": "purchased Millipore, Inc. (KinaseProfiler service)", "in_short": "as §1"}, "MAP4K2": {"target": "T5, MAP4K2 (Homo sapiens, UniProt Q12851)", "T5 construct": "purchased Millipore, Inc. (KinaseProfiler service)", "T5 sequence (Q12851 whole entry)": "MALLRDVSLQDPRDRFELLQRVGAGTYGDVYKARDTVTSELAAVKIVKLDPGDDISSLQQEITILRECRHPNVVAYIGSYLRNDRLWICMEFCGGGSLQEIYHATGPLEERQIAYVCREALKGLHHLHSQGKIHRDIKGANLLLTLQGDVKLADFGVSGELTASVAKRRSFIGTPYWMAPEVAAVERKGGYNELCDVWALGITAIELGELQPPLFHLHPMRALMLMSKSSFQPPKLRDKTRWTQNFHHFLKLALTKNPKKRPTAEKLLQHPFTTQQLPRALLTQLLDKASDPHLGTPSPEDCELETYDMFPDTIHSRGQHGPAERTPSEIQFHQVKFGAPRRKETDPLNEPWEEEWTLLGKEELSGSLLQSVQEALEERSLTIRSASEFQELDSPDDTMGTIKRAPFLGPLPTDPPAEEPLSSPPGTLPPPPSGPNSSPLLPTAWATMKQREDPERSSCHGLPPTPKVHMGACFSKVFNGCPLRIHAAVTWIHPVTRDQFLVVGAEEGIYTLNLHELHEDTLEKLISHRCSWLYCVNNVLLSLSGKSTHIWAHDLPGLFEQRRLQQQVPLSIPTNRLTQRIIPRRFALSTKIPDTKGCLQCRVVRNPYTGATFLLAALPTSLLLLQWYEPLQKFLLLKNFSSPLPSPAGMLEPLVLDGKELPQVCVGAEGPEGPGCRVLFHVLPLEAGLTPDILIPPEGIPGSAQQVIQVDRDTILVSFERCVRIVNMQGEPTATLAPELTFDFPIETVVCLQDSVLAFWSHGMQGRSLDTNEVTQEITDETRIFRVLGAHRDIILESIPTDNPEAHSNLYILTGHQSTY", "in_short": "as §1"}, "Hck": {"target": "T6, Hck (Homo sapiens, UniProt P08631)", "T6 construct": "purchased Millipore, Inc. (KinaseProfiler service)", "in_short": "as §1"}, "ERK2": {"target": "T7, ERK2 (Homo sapiens, UniProt P28482)", "T7 construct": "purchased Millipore, Inc. (KinaseProfiler service)", "in_short": "as §1"}, "EphA1": {"target": "T8, EphA1 (Homo sapiens, UniProt P21709)", "T8 construct": "purchased Millipore, Inc. (KinaseProfiler service)", "in_short": "as §1"}, "CAMK1d": {"target": "T9, CAMK1d (Homo sapiens, UniProt Q8IU85)", "T9 construct": "purchased Millipore (KinaseProfiler service)", "in_short": "as §1"}, "ALK4": {"target": "T10, ALK4 (Homo sapiens, UniProt P36896)", "T10 construct": "purchased Millipore (KinaseProfiler service)", "in_short": "as §1"}, "PKCepsilon": {"target": "T11, PKCepsilon (Homo sapiens, UniProt Q02156)", "T11 construct": "purchased Millipore, Inc. (KinaseProfiler service)", "T11 sequence (Q02156 whole entry)": "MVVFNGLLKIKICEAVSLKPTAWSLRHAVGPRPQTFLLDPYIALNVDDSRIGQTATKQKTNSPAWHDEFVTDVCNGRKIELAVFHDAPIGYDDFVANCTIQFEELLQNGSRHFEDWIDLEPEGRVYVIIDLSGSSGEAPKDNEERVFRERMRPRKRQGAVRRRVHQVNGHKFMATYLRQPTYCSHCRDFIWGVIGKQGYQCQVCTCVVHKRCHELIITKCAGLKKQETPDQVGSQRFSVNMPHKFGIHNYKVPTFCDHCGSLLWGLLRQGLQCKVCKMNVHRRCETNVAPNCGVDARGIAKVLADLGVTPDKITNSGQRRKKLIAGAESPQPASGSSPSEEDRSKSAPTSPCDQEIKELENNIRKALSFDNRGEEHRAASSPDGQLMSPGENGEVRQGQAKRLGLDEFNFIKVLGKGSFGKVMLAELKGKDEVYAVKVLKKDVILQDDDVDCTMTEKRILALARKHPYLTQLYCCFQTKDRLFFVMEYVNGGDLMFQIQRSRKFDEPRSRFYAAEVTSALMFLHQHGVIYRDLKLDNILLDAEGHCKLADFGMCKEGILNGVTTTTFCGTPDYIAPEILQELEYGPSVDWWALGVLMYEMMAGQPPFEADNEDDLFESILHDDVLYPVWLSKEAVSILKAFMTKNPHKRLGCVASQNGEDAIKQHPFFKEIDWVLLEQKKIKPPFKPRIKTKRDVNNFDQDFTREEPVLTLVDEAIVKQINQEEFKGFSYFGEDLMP", "in_short": "as §1"}, "Abl-P": {"target": "T12, Abl-P (Homo sapiens, UniProt P00519)", "T12 construct": "purchased Millipore (KinaseProfiler service)", "in_short": "as §1"}, "MSK2": {"target": "T13, MSK2 (Homo sapiens, UniProt O75676)", "T13 construct": "purchased Millipore, Inc. (KinaseProfiler service)", "in_short": "as §1"}, "PrKX": {"target": "T14, PrKX (Homo sapiens, UniProt P51817)", "T14 construct": "purchased Millipore, Inc. (KinaseProfiler service)", "in_short": "as §1"}, "Ron": {"target": "T15, Ron (Homo sapiens, UniProt Q04912)", "T15 construct": "purchased Millipore, Inc. (KinaseProfiler service)", "in_short": "as §1"}, "MST2": {"target": "T16, MST2 (Homo sapiens, UniProt Q13188)", "T16 construct": "purchased Millipore, Inc. (KinaseProfiler service)", "in_short": "as §1"}, "ULK2": {"target": "T17, ULK2 (Homo sapiens, UniProt Q8IYT8)", "T17 construct": "purchased Millipore, Inc. (KinaseProfiler service)", "in_short": "as §1"}, "NEK6": {"target": "T18, NEK6 (Homo sapiens, UniProt Q9HC98)", "T18 construct": "purchased Millipore, Inc. (KinaseProfiler service)", "in_short": "as §1"}, "p38beta": {"target": "T19, p38beta (Homo sapiens, UniProt Q15759)", "T19 construct": "purchased Millipore, Inc. (KinaseProfiler service)", "in_short": "as §1"}, "ErbB4": {"target": "T20, ErbB4 (Homo sapiens, UniProt Q15303)", "T20 construct": "purchased Millipore, Inc. (KinaseProfiler service)", "in_short": "as §1"}, "DDR2": {"target": "T21, DDR2 (Homo sapiens, UniProt Q16832)", "T21 construct": "purchased Millipore, Inc. (KinaseProfiler service)", "T21 sequence (Q16832 22-855)": "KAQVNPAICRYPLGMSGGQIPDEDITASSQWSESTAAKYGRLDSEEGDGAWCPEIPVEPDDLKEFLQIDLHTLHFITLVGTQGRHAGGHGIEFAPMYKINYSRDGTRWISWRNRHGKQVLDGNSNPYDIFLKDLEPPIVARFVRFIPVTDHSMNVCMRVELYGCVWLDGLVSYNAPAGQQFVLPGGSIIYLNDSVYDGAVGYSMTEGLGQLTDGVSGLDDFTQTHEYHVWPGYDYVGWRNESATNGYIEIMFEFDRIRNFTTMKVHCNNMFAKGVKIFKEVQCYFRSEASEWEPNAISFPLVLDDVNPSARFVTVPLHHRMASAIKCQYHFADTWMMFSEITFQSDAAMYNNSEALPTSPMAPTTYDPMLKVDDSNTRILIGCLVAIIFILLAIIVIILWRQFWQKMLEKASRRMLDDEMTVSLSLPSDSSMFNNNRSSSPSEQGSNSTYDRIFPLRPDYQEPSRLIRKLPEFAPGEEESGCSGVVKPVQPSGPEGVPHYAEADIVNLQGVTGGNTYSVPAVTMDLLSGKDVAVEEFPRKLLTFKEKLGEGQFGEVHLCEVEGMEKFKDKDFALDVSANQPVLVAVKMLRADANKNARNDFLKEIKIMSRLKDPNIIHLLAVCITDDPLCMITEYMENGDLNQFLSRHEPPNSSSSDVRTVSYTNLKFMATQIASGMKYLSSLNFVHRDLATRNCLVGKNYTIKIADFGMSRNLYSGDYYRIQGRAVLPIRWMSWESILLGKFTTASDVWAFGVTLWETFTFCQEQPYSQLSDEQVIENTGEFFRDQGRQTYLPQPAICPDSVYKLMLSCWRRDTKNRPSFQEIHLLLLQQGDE", "in_short": "as §1"}, "PASK": {"target": "T22, PASK (Homo sapiens, UniProt Q96RG2)", "T22 construct": "purchased Millipore, Inc. (KinaseProfiler service)", "in_short": "as §1"}, "CK1gamma3": {"target": "T23, CK1gamma3 (Homo sapiens, UniProt Q9Y6M4)", "T23 construct": "purchased Millipore, Inc. (KinaseProfiler service)", "in_short": "as §1"}, "EphB4": {"target": "T24, EphB4 (Homo sapiens, UniProt P54760)", "T24 construct": "purchased Millipore, Inc. (KinaseProfiler service)", "in_short": "as §1"}, "MAP3K5": {"target": "T25, MAP3K5 (Homo sapiens, UniProt Q99683)", "T25 construct": "purchased Millipore, Inc. (KinaseProfiler service)", "in_short": "as §1"}, "CK1delta": {"target": "T26, CK1delta (Homo sapiens, UniProt P48730)", "T26 construct": "purchased Millipore, Inc. (KinaseProfiler service)", "in_short": "as §1"}, "EphA5": {"target": "T27, EphA5 (Homo sapiens, UniProt P54756)", "T27 construct": "purchased Millipore, Inc. (KinaseProfiler service)", "in_short": "as §1"}, "PAK4": {"target": "T28, PAK4 (Homo sapiens, UniProt O96013)", "T28 construct": "purchased Millipore, Inc. (KinaseProfiler service)", "in_short": "as §1"}, "CHK2": {"target": "T29, CHK2 (Homo sapiens, UniProt O96017)", "T29 construct": "purchased Millipore, Inc. (KinaseProfiler service)", "in_short": "as §1"}, "IGF-1R Activated": {"target": "T30, IGF-1R Activated (Homo sapiens, UniProt P08069)", "T30 construct": "purchased Millipore, Inc. (KinaseProfiler service)", "T30 sequence (P08069 959-1367 limits assumed)": "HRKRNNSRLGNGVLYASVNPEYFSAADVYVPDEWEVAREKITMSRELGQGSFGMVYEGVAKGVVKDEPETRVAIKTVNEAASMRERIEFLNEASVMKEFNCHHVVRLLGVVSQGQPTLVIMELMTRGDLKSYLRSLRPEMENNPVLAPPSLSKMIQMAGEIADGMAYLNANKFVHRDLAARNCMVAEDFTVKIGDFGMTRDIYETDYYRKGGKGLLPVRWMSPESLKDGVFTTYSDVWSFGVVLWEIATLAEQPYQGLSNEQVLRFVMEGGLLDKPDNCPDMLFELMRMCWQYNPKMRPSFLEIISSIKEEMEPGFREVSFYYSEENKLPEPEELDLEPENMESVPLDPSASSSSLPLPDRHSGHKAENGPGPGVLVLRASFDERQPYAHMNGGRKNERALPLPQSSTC", "in_short": "as §1"}, "MKK6": {"target": "T31, MKK6 (Homo sapiens, UniProt P52564)", "T31 construct": "purchased Millipore, Inc. (KinaseProfiler service)", "in_short": "as §1"}, "GSK3beta": {"target": "T32, GSK3beta (Homo sapiens, UniProt P49841)", "T32 construct": "purchased Millipore, Inc. (KinaseProfiler service)", "in_short": "as §1"}, "IR": {"target": "T33, IR (Homo sapiens, UniProt P06213)", "T33 construct": "purchased Millipore, Inc. (KinaseProfiler service)", "T33 sequence (P06213 28-1382)": "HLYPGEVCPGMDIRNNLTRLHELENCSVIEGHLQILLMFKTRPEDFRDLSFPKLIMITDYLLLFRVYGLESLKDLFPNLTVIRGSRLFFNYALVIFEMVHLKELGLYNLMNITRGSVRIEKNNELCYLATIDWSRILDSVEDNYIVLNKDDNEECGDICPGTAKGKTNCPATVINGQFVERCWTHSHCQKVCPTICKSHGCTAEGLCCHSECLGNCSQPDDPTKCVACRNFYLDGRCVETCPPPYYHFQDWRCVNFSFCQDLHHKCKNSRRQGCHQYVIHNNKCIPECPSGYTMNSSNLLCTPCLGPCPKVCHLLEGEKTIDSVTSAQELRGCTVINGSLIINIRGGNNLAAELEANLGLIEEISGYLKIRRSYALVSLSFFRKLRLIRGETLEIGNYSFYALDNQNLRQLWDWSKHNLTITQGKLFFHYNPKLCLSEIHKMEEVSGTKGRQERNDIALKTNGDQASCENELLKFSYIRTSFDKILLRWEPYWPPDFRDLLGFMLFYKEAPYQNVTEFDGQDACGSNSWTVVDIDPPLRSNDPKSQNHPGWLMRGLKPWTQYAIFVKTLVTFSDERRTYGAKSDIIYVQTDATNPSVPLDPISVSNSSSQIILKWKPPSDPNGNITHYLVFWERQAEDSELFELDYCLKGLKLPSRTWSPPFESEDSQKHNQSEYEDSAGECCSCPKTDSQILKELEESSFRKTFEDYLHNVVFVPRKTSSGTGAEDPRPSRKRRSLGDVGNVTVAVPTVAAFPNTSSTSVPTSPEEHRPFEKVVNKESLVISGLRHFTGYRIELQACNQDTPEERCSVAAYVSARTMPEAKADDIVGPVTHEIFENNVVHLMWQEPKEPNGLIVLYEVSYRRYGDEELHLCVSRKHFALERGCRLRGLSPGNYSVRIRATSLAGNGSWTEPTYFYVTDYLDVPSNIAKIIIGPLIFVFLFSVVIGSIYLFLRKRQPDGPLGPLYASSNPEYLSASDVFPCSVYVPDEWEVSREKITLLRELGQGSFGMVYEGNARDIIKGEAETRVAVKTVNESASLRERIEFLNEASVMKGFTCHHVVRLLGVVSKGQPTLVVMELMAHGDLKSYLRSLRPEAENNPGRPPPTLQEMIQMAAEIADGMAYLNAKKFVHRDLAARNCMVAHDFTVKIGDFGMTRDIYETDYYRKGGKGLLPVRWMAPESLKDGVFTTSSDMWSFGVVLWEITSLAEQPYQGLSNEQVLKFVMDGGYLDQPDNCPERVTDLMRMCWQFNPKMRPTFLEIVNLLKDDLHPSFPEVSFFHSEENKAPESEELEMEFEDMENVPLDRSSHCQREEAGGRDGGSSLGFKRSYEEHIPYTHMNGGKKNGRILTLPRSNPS", "in_short": "as §1"}, "Plk3": {"target": "T34, Plk3 (Homo sapiens, UniProt Q9H4B4)", "T34 construct": "purchased Millipore, Inc. (KinaseProfiler service)", "T34 sequence (Q9H4B4 whole entry)": "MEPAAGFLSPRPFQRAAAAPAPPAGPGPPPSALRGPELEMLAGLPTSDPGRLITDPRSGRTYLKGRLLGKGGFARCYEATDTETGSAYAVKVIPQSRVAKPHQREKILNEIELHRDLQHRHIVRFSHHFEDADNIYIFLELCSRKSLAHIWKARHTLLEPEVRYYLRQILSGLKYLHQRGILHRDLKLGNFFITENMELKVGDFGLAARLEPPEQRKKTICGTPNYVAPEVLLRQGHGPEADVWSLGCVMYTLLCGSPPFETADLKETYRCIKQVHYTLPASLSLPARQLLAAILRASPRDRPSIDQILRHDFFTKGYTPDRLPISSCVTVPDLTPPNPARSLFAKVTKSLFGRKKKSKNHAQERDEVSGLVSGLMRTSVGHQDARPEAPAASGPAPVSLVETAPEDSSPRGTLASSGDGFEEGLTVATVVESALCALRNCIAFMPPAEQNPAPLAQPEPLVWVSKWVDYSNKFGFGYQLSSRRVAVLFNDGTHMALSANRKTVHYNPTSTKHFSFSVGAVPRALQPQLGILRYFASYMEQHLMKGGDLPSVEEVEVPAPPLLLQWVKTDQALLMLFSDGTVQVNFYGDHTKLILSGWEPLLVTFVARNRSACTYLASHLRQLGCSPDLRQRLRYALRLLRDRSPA", "in_short": "as §1"}, "p70S6K": {"target": "T35, p70S6K (Homo sapiens, UniProt P23443)", "T35 construct": "purchased Millipore, Inc. (KinaseProfiler service)", "in_short": "as §1"}, "Plk2": {"target": "T36, Plk2 (Homo sapiens, UniProt Q9NYY3)", "T36 construct": "purchased Millipore, Inc. (KinaseProfiler service)", "in_short": "as §1"}, "LOK": {"target": "T37, LOK (Homo sapiens, UniProt O94804)", "T37 construct": "purchased Millipore, Inc. (KinaseProfiler service)", "in_short": "as §1"}, "PKCzeta": {"target": "T38, PKCzeta (Homo sapiens, UniProt Q05513)", "T38 construct": "purchased Millipore, Inc. (KinaseProfiler service)", "in_short": "as §1"}, "PKCalpha": {"target": "T39, PKCalpha (Homo sapiens, UniProt P17252)", "T39 construct": "purchased Millipore, Inc. (KinaseProfiler service)", "in_short": "as §1"}, "JAK2": {"target": "T40, JAK2 (Homo sapiens, UniProt O60674)", "T40 construct": "purchased Millipore, Inc. (KinaseProfiler service)", "in_short": "as §1"}, "DMPK": {"target": "T41, DMPK (Homo sapiens, UniProt Q09013)", "T41 construct": "purchased Millipore, Inc. (KinaseProfiler service)", "in_short": "as §1"}}}
{"smiles": "Cc1c(-c2cnn(C)c2)nn(-c2ccccc2)c1NC(=O)Nc1sc(C(F)(F)F)nc1-c1ccccc1", "note": "[Example 2, 1-(1′,4-dimethyl-1-phenyl-1H,1′H-[3,4′-bipyrazol]-5-yl)-3-(4-phenyl-2-(trifluoromethyl)thiazol-5-yl)urea]", "values": [{"measurement": "Avg POC", "setting": "JNK2alpha2", "result": 97.5, "unit": "POC"}, {"measurement": "Avg POC", "setting": "PRKG1alpha", "result": 118, "unit": "POC"}, {"measurement": "Avg POC", "setting": "EphB1", "result": 136, "unit": "POC"}, {"measurement": "Avg POC", "setting": "PRKG1beta", "result": 119, "unit": "POC"}, {"measurement": "Avg POC", "setting": "MAP4K2", "result": 121.5, "unit": "POC"}, {"measurement": "Avg POC", "setting": "Hck", "result": 134.5, "unit": "POC"}, {"measurement": "Avg POC", "setting": "ERK2", "result": 135, "unit": "POC"}, {"measurement": "Avg POC", "setting": "EphA1", "result": 81.5, "unit": "POC"}, {"measurement": "Avg POC", "setting": "CAMK1d", "result": 132.5, "unit": "POC"}, {"measurement": "Avg POC", "setting": "ALK4", "result": 107, "unit": "POC"}, {"measurement": "Avg POC", "setting": "PKCepsilon", "result": 102, "unit": "POC"}, {"measurement": "Avg POC", "setting": "Abl-P", "result": 148, "unit": "POC"}, {"measurement": "Avg POC", "setting": "MSK2", "result": 136, "unit": "POC"}, {"measurement": "Avg POC", "setting": "PrKX", "result": 122, "unit": "POC"}, {"measurement": "Avg POC", "setting": "Ron", "result": 110.5, "unit": "POC"}, {"measurement": "Avg POC", "setting": "MST2", "result": 109, "unit": "POC"}, {"measurement": "Avg POC", "setting": "ULK2", "result": 91, "unit": "POC"}, {"measurement": "Avg POC", "setting": "NEK6", "result": 117.5, "unit": "POC"}, {"measurement": "Avg POC", "setting": "p38beta", "result": 106.5, "unit": "POC"}, {"measurement": "Avg POC", "setting": "ErbB4", "result": 125, "unit": "POC"}, {"measurement": "Avg POC", "setting": "DDR2", "result": 98, "unit": "POC"}, {"measurement": "Avg POC", "setting": "PASK", "result": 113, "unit": "POC"}, {"measurement": "Avg POC", "setting": "CK1gamma3", "result": 114, "unit": "POC"}, {"measurement": "Avg POC", "setting": "EphB4", "result": 130, "unit": "POC"}, {"measurement": "Avg POC", "setting": "MAP3K5", "result": 107.5, "unit": "POC"}, {"measurement": "Avg POC", "setting": "CK1delta", "result": 117.5, "unit": "POC"}, {"measurement": "Avg POC", "setting": "EphA5", "result": 118.5, "unit": "POC"}, {"measurement": "Avg POC", "setting": "PAK4", "result": 103.5, "unit": "POC"}, {"measurement": "Avg POC", "setting": "CHK2", "result": 133, "unit": "POC"}, {"measurement": "Avg POC", "setting": "IGF-1R Activated", "result": 97.5, "unit": "POC"}, {"measurement": "Avg POC", "setting": "MKK6", "result": 134, "unit": "POC"}, {"measurement": "Avg POC", "setting": "GSK3beta", "result": 127.5, "unit": "POC"}, {"measurement": "Avg POC", "setting": "IR", "result": 99, "unit": "POC"}, {"measurement": "Avg POC", "setting": "Plk3", "result": 105, "unit": "POC"}, {"measurement": "Avg POC", "setting": "p70S6K", "result": 322, "unit": "POC"}, {"measurement": "Avg POC", "setting": "Plk2", "result": 99, "unit": "POC"}, {"measurement": "Avg POC", "setting": "LOK", "result": 110.5, "unit": "POC"}, {"measurement": "Avg POC", "setting": "PKCzeta", "result": 108, "unit": "POC"}, {"measurement": "Avg POC", "setting": "PKCalpha", "result": 102.5, "unit": "POC"}, {"measurement": "Avg POC", "setting": "JAK2", "result": 147.5, "unit": "POC"}, {"measurement": "Avg POC", "setting": "DMPK", "result": 107.5, "unit": "POC"}]}
